{
  "source": "patent US20250387360A1",
  "about": "“Methods and Compositions for Treatment of Addiction” (University of Connecticut, priority 2024, published 2025)",
  "assay_type_in_all_cases": "in vivo, mouse",
  "key": {"female mice": {"system": "female mice", "experiment": "4-day DID regimen in young female mice", "settings": "n=7/group, same DID protocol, vs vehicle control", "experimental": "(§1) A standard 4-day drinking in the dark (DID) model was used to evaluate binge-like ethanol drinking patterns in mice. A 20% v/v ethanol solution was prepared by diluting 190-proof ethyl alcohol (Sigma, MO, U.S.A) with deionized water. During days 1-3, the water bottles were temporarily removed during the dark cycle of the mice, and the mice were provided with a tube containing the 20% v/v ethanol solution for a duration of two hours. On day four, the assessment of binge-like ethanol consumption took place, where the mice were given access to the 20% v/v ethanol solution for a period of four hours. The volume of fluid in the tube (read to the closest 100 μL) was measured immediately upon placement, and at two hours and four hours into the test. Following the completion of the four hours test, approximately 100 μL of blood was collected through cardiac puncture after CO2 euthanasia. Blood samples were subjected to centrifugation at 10,000 rpm for 10 minutes. The determination of blood ethanol concentrations (BEC) was performed using an Analox AMI Analyzer (Analox Instruments, MA, U.S.A). The quantity of ethanol consumed was then calculated as grams per kilogram of the mouse's body weight."}, "male mice": {"system": "male mice", "experiment": "Dosage dependent, short-term sodium valerate in 4-day DID regimen", "settings": "day 1 to day 4, n=7/group, vs vehicle", "experimental": "Different dosages of sodium valerate ranging from 20 mM to 200 mM were tested in male mice (n=7/group, 6-8 weeks old) using a 4-day DID regimen. Different dosages of sodium valerate were given through drinking water 30 min before the 2-hour drinking exposure at Day 1 and continued to day 4 except the drinking hours.\nas §1, with “The determination of blood ethanol concentrations (BEC) was performed using an Analox AMI Analyzer (Analox Instruments, MA, U.S.A).” left out, “weight. […]” for “weight.”"}, "[1]": {"experiment": "Daily body weight, food and fluid intake monitoring", "settings": "10-day supplementation", "excerpt": "Male C57BL/6J mice, (RRID: IMSR_JAX: 000664), aged 6-8 weeks, were obtained from Jackson Laboratories (ME, U.S.A) for the study. The mice were housed individually under a reversed 12-hours light/dark cycle, with lights off from […] to 7:00 am. A minimum acclimation period of 2 weeks was provided for all animals before they were randomly assigned to their respective groups. Mice had free access to food (Irradiated chow, Teklad global 18% protein rodent diet, 2918, Inotiv, WI, U.S.A) and deionized water to acclimate to the testing environment. Body weight and daily food and fluid intake were monitored and noted for all animal experiments.\nThe food intake was assessed by providing a pre-weighed amount of food in their cage hopper and then weighing the remaining food inside the cage and in the hopper daily. To assess daily fluid intake, the sodium valerate and NaCl bottles were pre-weighed, and the remaining amount was deducted after the measurement period. Food and fluid intakes were normalized to mouse body weight by dividing the average intake by the average body weight."}, "GABA levels": {"system": "GABA levels", "experiment": "GABA ELISA in stool, amygdala and plasma after DID", "settings": "10 days supplementation following DID, vs NaCl", "experimental": "GABA levels in plasma, stool, and amygdala samples were determined using an ELISA kit (LDN, Labor Diagnostika Nord, Nordhorn, Germany) following the manufacturer's instructions. Plasma samples were used directly without any additional preparation. For stool and amygdala, samples, they were first thawed and then homogenized in a solution consisting of 0.01N HCl (Thermo Fisher Scientific, MA, U.S.A), ImM EDTA (Thermo Fisher Scientific, MA, U.S.A), and 4 mM sodium metabisulfite (Thermo Fisher Scientific, MA, U.S.A). After homogenization, the samples underwent centrifugation at 3000×g for 5 minutes at 4° C. before GABA estimation. To summarize the assay procedure, plasma, homogenized stool, and amygdala samples, and the kit's standards were all processed on an extraction plate. They were subsequently derivatized using an equalizing reagent and subjected to a standard competitive ELISA conducted in GABA-coated 96-well microtiter strips. The optical density (OD) of the solution within the wells was rapidly read at 450 nm using a 96-well plate reader (iMark™ Microplate Absorbance Reader; Biorad, CA, U.S.A, RRID:SCR_023799). The OD data was employed to determine the GABA concentration via a standard curve.\nThe levels of GABA in the amygdala were measured next, stool, and blood of the mice that underwent the DID paradigm, comparing those supplemented with sodium valerate to those supplemented with NaCl."}, "gut microbiome": {"system": "gut microbiome", "experiment": "16S rRNA sequencing of stool and gut-brain module analysis", "settings": "stool", "protocol": "Microbial genomic DNA extraction from mouse stool samples was carried out using the Quick-DNA Fecal/Soil Microbe 96 Kit (Zymo Research, CA, U.S.A) following the manufacturer's protocols. The hypervariable region V4 of the bacterial 16S rRNA gene, 515F (5′-[sequence]-3′ (SEQ ID NO: 1)) and 806R (5′-[sequence]-3′ (SEQ ID NO: 2)) was amplified and sequenced on the Illumina MiSeq platform (2×250 bp) (Illumina, CA, U.S.A). The raw sequencing reads were processed via the DADA2 V1.16 (RRID:SCR_023519) data processing pipeline to generate amplicon sequence variants (ASVs). Taxonomic assignments were made using the Silva database V138.1 (RRID:SCR_006423), with a classification confidence threshold set at p<0.5 for assigning unclassified taxa at their respective taxonomical levels. PCR negative controls and extraction controls for DNA extraction and sequencing were included in the analysis. […] Sequencing reads from all the samples were rarified to 10,000 reads per sample. […] All of the microbiome analysis was done in R.\n16S rRNA gene sequencing of stool samples collected before and after sodium valerate treatment (n=7 mice/group) was performed. […] Permutational multivariate analysis of variance (PERMANOVA) tests were performed on CLR-transformed data to test for beta-diversity differences between sodium valerate and NaCl-supplemented groups (n=14 mice/group)."}, "male C57BL/6J mice": {"system": "male C57BL/6J mice", "experiment": "Intermittent-access 20% ethanol two-bottle-choice drinking", "experimental": "Twenty male C57BL/6J mice were given access to 20% ethanol for three 24-hour sessions per week. On the first Monday, Wednesday, and Friday, mice were offered increasing concentrations of ethanol (3%, 6%, and 10% w/v, respectively) in one bottle, with water in a second bottle, to acclimate them to ethanol consumption. After this acclimation, mice received one bottle of 20% ethanol and one bottle of water every Monday, Wednesday, and Friday for 24 hours. To minimize side bias, the position of the bottles in the cage was alternated between sessions.\nFor the first 8 weeks, mice received intraperitoneal (i.p.) injections of phosphate-buffered saline (PBS) 30 minutes prior to each ethanol session to establish stable ethanol consumption (g/kg) and ethanol preference (ethanol intake as a proportion of total fluid intake). In the following 4 weeks (12 sessions), mice were randomly assigned to receive i.p. injections of either sodium valerate or sodium chloride (NaCl) at a dose of 600 mg/kg, 30 minutes before each ethanol session (n=10 per group). Ethanol and water consumption, as well as ethanol preference, were measured throughout the study to assess the effects of sodium valerate on ethanol drinking behavior compared to the NaCl control. After each 24-hour access period, the ethanol and water bottles were weighed, and mouse body weights were recorded to calculate ethanol intake (g/kg/24 hours) and water intake (mL/kg/24 hours). Ethanol preference was calculated as the ratio of ethanol intake to total fluid intake."}},
  "note": "Entries after “also recorded” stand apart in the source; their conditions may differ.",
  "data": [
    {"smiles": "CCCCC(=O)[O-].[Na+]", "note": "[sodium valerate]", "values": [
      {"measurement": "alcohol binge drinking in female mice", "setting": "female mice", "result": "significantly reduced"},
      {"measurement": "blood ethanol levels in female mice", "setting": "female mice", "result": "significantly reduced"},
      {"measurement": "alcohol intake, 100 mM", "setting": "male mice; 100 mM in drinking water 30 min before alcohol exposure", "result": "significantly decreased; also recorded: reduce drinking significantly"},
      {"measurement": "alcohol intake, 200 mM", "setting": "male mice; 200 mM in drinking water 30 min before alcohol exposure", "result": "significantly decreased; also recorded: reduce drinking significantly"},
      {"measurement": "body weight vs NaCl group", "setting": "[1]; n=10 mice/group", "result": "did not differ significantly; also recorded: did not affect"},
      {"measurement": "fluid intake (intake of sodium valerate and NaCl) vs NaCl group", "setting": "[1]; n=14 mice/group", "result": "no statistical difference; also recorded: did not affect"},
      {"measurement": "food consumption vs NaCl group", "setting": "[1]; n=14 mice/group", "result": "no statistical difference; also recorded: did not affect"},
      {"measurement": "GABA levels in plasma", "setting": "GABA levels; n=6 mice/group", "result": "not significant"},
      {"measurement": "GABA levels in stool", "setting": "GABA levels; p=0.0001", "result": "elevated"},
      {"measurement": "GABA levels in the amygdala", "setting": "GABA levels; p=0.01", "result": "elevated"},
      {"measurement": "abundance of Ileibacterium genera", "setting": "gut microbiome; 10 days supplementation, adjusted p=0.24, unadjusted p=0.004", "result": "increase in abundance"},
      {"measurement": "beta-diversity between sodium valerate and NaCl groups", "setting": "gut microbiome; after 10 days of supplementation, PERMANOVA/PCA", "result": "increased dissimilarity"},
      {"measurement": "Dubosiella abundance, log2Fold change", "setting": "gut microbiome; after 10 days supplementation, DESeq2, adjusted p=9.46E-5", "result": 7.84},
      {"measurement": "ethanol consumption, week 11", "setting": "male C57BL/6J mice; 600 mg/kg i.p. 30 min before each session, n=10, baseline 24.38±4.19, p<0.001", "result": "15.47±1.49", "unit": "g/kg/24 hours"},
      {"measurement": "ethanol preference, week 11", "setting": "male C57BL/6J mice; 600 mg/kg i.p. 30 min before each session, n=10, baseline 66.81±4.8%, p<0.01", "result": "54.26±4.5", "unit": "%"},
      {"measurement": "ethanol intake, week 12", "setting": "male C57BL/6J mice; 600 mg/kg i.p. 30 min before each session, n=10, p<0.001 vs baseline", "result": "13.42±1.60", "unit": "g/kg/24 hours"},
      {"measurement": "ethanol preference, week 12", "setting": "male C57BL/6J mice; 600 mg/kg i.p. 30 min before each session, n=10, p<0.01 vs baseline", "result": "52.06±3.92", "unit": "%"},
      {"measurement": "ethanol consumption compared to the NaCl control group", "setting": "male C57BL/6J mice; 600 mg/kg i.p., weeks 11 and 12, p<0.001 for both weeks", "result": "significantly lower"},
      {"measurement": "ethanol preference compared to the NaCl control group", "setting": "male C57BL/6J mice; 600 mg/kg i.p., weeks 11 and 12, p<0.01 for both weeks", "result": "significantly lower"}
    ]}
  ]
}
